According to ChEMBL document CHEMBL2073791, “Substituted pyridazino[3,4-b][1,5]benzoxazepin-5(6H)ones as multidrug-resistance modulating agents” (J Med Chem, 2004):

Biological target: ATP-dependent translocase ABCB1 (Homo sapiens, UniProt P08183)
Experiment: TP_TRANSPORTER: drug resistance (vincristine) in HeLa-MDR1 cells
Assay type: functional, cell-based

Chain of ATP-dependent translocase ABCB1 (P08183 whole entry): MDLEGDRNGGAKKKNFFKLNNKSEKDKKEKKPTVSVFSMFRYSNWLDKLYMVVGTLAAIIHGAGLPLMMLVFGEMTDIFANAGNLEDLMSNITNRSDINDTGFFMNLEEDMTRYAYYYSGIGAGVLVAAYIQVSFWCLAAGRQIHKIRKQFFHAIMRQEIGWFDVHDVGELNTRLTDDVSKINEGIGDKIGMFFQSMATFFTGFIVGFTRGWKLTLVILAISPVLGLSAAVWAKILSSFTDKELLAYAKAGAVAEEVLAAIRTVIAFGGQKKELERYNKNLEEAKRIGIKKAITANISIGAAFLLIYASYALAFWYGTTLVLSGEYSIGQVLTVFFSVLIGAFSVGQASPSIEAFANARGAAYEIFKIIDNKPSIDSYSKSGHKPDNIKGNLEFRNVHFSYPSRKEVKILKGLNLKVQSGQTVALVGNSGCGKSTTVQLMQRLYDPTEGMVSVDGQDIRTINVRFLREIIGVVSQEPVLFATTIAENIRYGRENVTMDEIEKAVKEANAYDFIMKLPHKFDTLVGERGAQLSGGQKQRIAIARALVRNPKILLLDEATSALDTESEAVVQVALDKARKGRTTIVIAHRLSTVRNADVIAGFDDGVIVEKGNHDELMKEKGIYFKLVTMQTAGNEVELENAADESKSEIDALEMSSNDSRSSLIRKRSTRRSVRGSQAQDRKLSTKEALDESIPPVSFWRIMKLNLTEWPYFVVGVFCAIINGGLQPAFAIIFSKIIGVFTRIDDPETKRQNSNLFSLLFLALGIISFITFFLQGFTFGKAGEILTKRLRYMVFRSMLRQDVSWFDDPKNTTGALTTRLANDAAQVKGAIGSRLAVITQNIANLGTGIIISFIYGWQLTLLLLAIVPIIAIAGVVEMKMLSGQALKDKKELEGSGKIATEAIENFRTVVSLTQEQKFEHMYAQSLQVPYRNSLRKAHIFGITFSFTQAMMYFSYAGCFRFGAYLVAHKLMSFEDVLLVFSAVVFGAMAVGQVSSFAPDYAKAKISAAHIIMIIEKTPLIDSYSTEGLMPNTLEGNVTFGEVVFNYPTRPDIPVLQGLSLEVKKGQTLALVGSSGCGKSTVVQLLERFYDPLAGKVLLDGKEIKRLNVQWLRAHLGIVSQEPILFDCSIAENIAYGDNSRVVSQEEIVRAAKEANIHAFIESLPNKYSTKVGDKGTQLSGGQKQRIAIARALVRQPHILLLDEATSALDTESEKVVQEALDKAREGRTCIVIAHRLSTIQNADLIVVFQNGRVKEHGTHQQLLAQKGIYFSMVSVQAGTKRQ

Activity, substrate [+]:
O=C1c2cc(Cl)nnc2Oc2ccc(C(F)(F)F)cc2N1CCCN1CCN(c2ccccc2)CC1, O=C1c2cc(Cl)nnc2Oc2ccc(C(F)(F)F)cc2N1CCCN1CCN(Cc2ccccc2)CC1, O=C1c2cc(Cl)nnc2Oc2cc(C(F)(F)F)ccc2N1CCCN1CCN(C(c2ccccc2)c2ccccc2)CC1, Cc1cc(C)c2c(c1)N(CCCN1CCN(c3ccccc3)CC1)C(=O)c1cc(Cl)nnc1O2
